In US9962341B2, “Active pharmaceutical ingredient (API) comprising cannabinoids for use in the treatment of cancer” (GW Pharma Limited, priority 2014, dated 2018):

Tests used:
HepG2 = assay: Cell viability (CellTiter-Blue, 72 h), HepG2 liver cancer cells; type: cell-based; conditions: Homo sapiens, HepG2, 72 h, read-out: IC50 values
Description: The cell lines tested in this Example were as follows. Breast cancer: MDA-MB-231; SK-BR3; and BT474. Liver cancer: HepG2.
(§1) The phytocannabinoids were tested alone and in various ratioed combinations in media containing final concentrations of 10% and 1% foetal bovine serum at 72 h for the breast and prostate cancer lines and 1% foetal bovine serum for the liver cancer line HepG2.
Each tumour cell line was maintained in vitro in RPMI 1640+10% heat inactivated FBS and 2 mM L-glutamine (growth media) at 37° C. in 5% CO2 and humidified conditions. The cells were harvested, washed, re-suspended into growth medium and counted. The cells were re-suspended into assay media (RPMI 1640+5% heat inactivated FBS+ and 2 mM L-glutamine) at 8×104-2×10^5 cells/ml (dependent upon cell type) and plated into the middle 240 wells of 384 well tissue culture plates (Corning CellBind, black-wall plates) 12.5 μl/well aliquots; 62.5 μl of growth media was aliquoted into the outer wells. There were 4 plates for each cell line. The plates were incubated overnight at 37° C., in 5% humidified CO2.
The phytocannabinoid test compounds were prepared in 100% DMSO vehicle at a stock concentration of 10 mM.
Starting with the 10 mM stock, the compounds were diluted to 125 μM in FBS-free growth media.
These were diluted in FBS-free growth media to 125 μM before serial dilution.
5 volumes of CBD 10 mM stock was added to 1 volume of the other agent (also at 10 mM) and 4 volumes of DMSO. This made a final concentration of 5 mM:1 mM. This was then diluted in FBS-free growth media so the top concentration of CBD would be 125 μM (before serial dilution). Each compound and compound combination stock was serially diluted in FBS-free growth media (containing 1.25% v/v DMSO) from 125 μM to 41.7, 13.89, 4.63, 1.54, 0.514, 0.171, 0.057 and 0.019 μM (1.25× final assay concentrations). Vehicle was prepared at equivalent dilutions in assay media. The top final concentration of compound in the assay was always 100 μM so CBD5:1CBG was 100 μM CBD and 20 μM CBG.
The plates were incubated for 72 h at 37° C. in 5% humidified CO2. To develop the plates, at 72 h, 10 μl of CellTiter-Blue™ reagent was added to each test/blank well. The plates were incubated at 37° C., 5% humidified CO2. Fluorescence was measured using a Flex II Station plate reader (570 nm excitation wavelength, 600 nm emission wavelength, 590 nm cut-off) after 3 h.
The raw data values expressed in relative fluorescent units were normalised to the vehicle for each individual plate and any reduction in fluorescence indicated a decrease in viability.
The data were analysed in GraphPad PRISM using a non-linear sigmoidal plot with variable slope (asymmetric five point linear regression) and where possible an IC50 value for each single compound and combination was generated.

[1] = test system: LNCAP cells compared to DU145 cells; assay: Cell viability, prostate cancer lines LNCAP and DU145 (potency comparison); type: cell-based; conditions: media containing 10% FBS
Description: as §1

Row | SMILES | IC50 (HepG2) | fold more potent in LNCAP cells compared to DU145 cells [1]
1 | CCCc1cc(O)c2c(c1)OC(C)(C)[C@@H]1CCC(C)=C[C@@H]21 [THCV, Tetrahydrocannabivarin] | 7.2 µM | 5 fold
2 | C=C(C)[C@@H]1CCC(C)=C[C@H]1c1c(O)cc(CCCCC)c(C(=O)O)c1O [CBDA, Cannabidiolic acid] | 7.4 µM | –
3 | CCCCCc1cc(O)c(C/C=C(\C)CCC=C(C)C)c(O)c1C(=O)O [CBGA, Cannabigerolic acid] | 9.3 µM | –
4 | C=C(C)[C@@H]1CCC(C)=C[C@H]1c1c(O)cc(CCCCC)cc1O [CBD, Cannabidiol] | 3.3 µM | –
5 | CCCCCc1cc(O)c(C/C=C(\C)CCC=C(C)C)c(O)c1 [CBG, Cannabigerol] | 3.7 µM | –
